The values that follow come from ChEMBL document CHEMBL1275454, “Assessment of Aspergillus fumigatus burden in pulmonary tissue of guinea pigs by quantitative PCR, galactomannan enzyme immunoassay, and quantitative culture” (2008).

Active and inactive are the calls of the source. The calls are words filed in the database; no cut-off is given here.

Experiment [1] relates to Aspergillus fumigatus. Briefly: Antimicrobial activity against Aspergillus fumigatus AF293 infected in hartley guinea pig assessed as survival rate at 10 mg/kg, po BID for 8 days postinfection. Type of experiment: functional.
For experiment [2], the system named is Aspergillus fumigatus. Description: Antimicrobial activity against Aspergillus fumigatus AF293 infected in hartley guinea pig assessed as time to death at 10 mg/kg, po BID for 8 days postinfection. Type of experiment: functional. The conditions noted are these: AF293, in Cavia porcellus, 192 h.
The test system of experiment [3] is Aspergillus fumigatus. Description: Antimicrobial activity against Aspergillus fumigatus AF293 infected in hartley guinea pig assessed as decreased fungal burden in lung at 10 mg/kg, po BID for 8 days postinfection. It is filed as functional, organism-based. More on the design: dose 10 mg/kg.
Experiment [4] deals with Aspergillus fumigatus. Briefly: Antimicrobial activity against Aspergillus fumigatus AF293 infected in hartley guinea pig assessed as decreased fungal burden in lung at 10 mg/kg, po BID after 4 to 6 days postinfection. Type of experiment: functional, organism-based. More on the design: dose 10 mg/kg.
Experiment [5] relates to Aspergillus fumigatus. Description: Antimicrobial activity against Aspergillus fumigatus AF293 infected in hartley guinea pig assessed as log reduction in […] fungal burden at 10 mg/kg, po BID after 4 to 7 days postinfection. Type of experiment: functional.

In the case of `C[C@@H](c1ncncc1F)[C@](O)(Cn1cncn1)c1ccc(F)cc1F` [VORICONAZOLE], the Survival in the experiment with Aspergillus fumigatus [1] was found to be 9.13 days. Besides, the survival at 10 mg/kg in the experiment on Aspergillus fumigatus [2] amounted to 62.5%. Also, the result with Aspergillus fumigatus [3] and in the experiment with Aspergillus fumigatus [4] was Active. Besides, the FC in the experiment with Aspergillus fumigatus [5] stood at 2.98.
